Measurements from US11697667B2, “Salts and polymorphs of cethromycin for the treatment of disease” (AliquantumRx, Inc., priority 2019, dated 2023).
In brackets after ≈: the same amount, converted by molar mass. Several values for one entry are separate records, joined by “and”; a condition that tells them apart may be missing. Identical values can stand only once. Entries after “also recorded” stand apart in the source; their conditions may differ. Values belong to the compound of their own block, whether it stands above or below them.

What was measured:
Format in all cases: physicochemical
[1] = Kinetic solubility (2 hours) in SGF media
Description: Sufficient sample was suspended in 0.25 ml media for a maximum anticipated concentration of ca. 40 mg/ml of the free form of the compound. The resulting suspensions were then shaken at 25° C./750 rpm for 2 hours. After equilibration, the appearance was noted, and the pH of the saturated solution was measured. Samples were then filtered through a glass ‘C’ fibre filter (particle retention 1.2 μm). All the samples were diluted 100 times with SGF media. […] Different volumes of the standard and diluted sample solutions were injected.

[2] = Preliminary solubility investigation of amorphous cethromycin in solvents; conditions: for Solubility: 50 °C, organic solvent or mixture, thermodynamic from solid, heated to 50° C.
Description: Amorphous cethromycin (25 mg) in HPLC vials was treated with increasing volumes of solvent until the material fully dissolved or until a maximum of 60 vol (1.5 ml) had been added. After each addition of solvent, the vials were stirred and gently heated to 50° C. before the addition of a new aliquot of solvent. […] All solids were then isolated by filtration and dried under suction. Antisolvent (n-heptane, 10 or 20 vol) was added to any solutions and the resulting gums were matured in a chamber switching from 25° C. to 50° C. every four hours. All isolated solids were analysed by PXRD.

[3] = Thermodynamic solubility (24 hours) in DI water
Description: (§1) Sufficient sample was suspended in 0.25 ml media for a maximum anticipated concentration of ca. 40 mg/ml of the free form of the compound. The resulting suspensions were then shaken at 25° C./750 rpm for 24 hours. The pH of samples suspended in PBS pH 7.4 were checked and adjusted if necessary (>0.05 change in pH) after 2 hours. After equilibration, the appearance was noted and the pH of the saturated solution was measured. Samples were then filtered through a glass ‘C’ fibre filter (Particle retention 1.2 μm). Samples suspended in PBS pH 7.4 buffer was diluted 10 times with PBS buffer and samples suspended in DI water diluted 100 times with DI water.

[4] = Thermodynamic solubility (24 hours) in PBS media; conditions: PBS pH 7.4, 24 hr (Table 33)
Description: as §1

[5] = PXRD of residues undissolved after solubility analysis
Description: PXRD analysis was performed on residues that remained undissolved after the solubility analysis to check for changes in solid form.

[6] = Storage stability at 40° C./75% RH and 25° C./97% RH (PXRD, HPLC, NMR)
Description: Studies were performed on various cethromycin forms in order to determine stability for storage.

[7] = Solubility assessment of amorphous cethromycin chloride in solvents at 25° C.
[8] = Variable-temperature PXRD / thermal behaviour of acetate pattern 1; conditions: after VT PXRD
Description: For variable temperature (VT-XRPD) experiments samples were mounted on an Anton Paar DHS 900 hot stage at ambient conditions. The sample was then heated to the appropriate temperature at 20° C./min and subsequently held isothermally for 1 minute before data collection. Samples were prepared and analysed on a silicon wafer mounted to the hot stage using a heat-conducting paste.
In order to investigate this further a VT PXRD experiment on this material was carried out. On heating, the original white powder converts first to a translucent solid by 130° C., then to a translucent white solid by 170° C. This conversion is accompanied by loss of the original diffraction pattern is lost and appearance of a new diffraction pattern. […] The material is stable at RT.

- solubility kinetic at 2 h ([1]; simulated gastric fluid, thermodynamic from solid, 2 hours, 25° C.): 25 mg/mL (≈ 32.6 mM)
- Solubility ([2]; 2-propanol, 10 vol): > 100 mg/mL
- Solubility in solvents ([2]; 10 vol of THF:H2O (9:1), 2-propanol, EtOH, EtOAc, acetone, MeCN, THF, TBME and DCM): readily soluble
- Solubility ([2]; DCM, 10 vol): > 100 mg/mL
- Solubility ([2]; EtOAc, 10 vol): > 100 mg/mL
- Solubility ([2]; EtOH, 10 vol): > 100 mg/mL
- Solubility ([2]; Hept (heptane), Hept, 10 vol): < 100 mg/mL
- Solubility ([2]; Hept (heptane), Hept, 20 vol): < 50 mg/mL
- Solubility ([2]; Hept (heptane), Hept, 30 vol): < 33.3 mg/mL
- Solubility ([2]; Hept (heptane), Hept, 40 vol): < 25 mg/mL
- Solubility ([2]; Hept (heptane), Hept, 50 vol): < 20 mg/mL
- Solubility ([2]; Hept (heptane), Hept, 60 vol): < 16.7 mg/mL
- Solubility ([2]; MeCN, 10 vol): > 100 mg/mL
- Solubility ([2]; TBME, 10 vol): > 100 mg/mL
- Solubility ([2]; THF, 10 vol): > 100 mg/mL
- Solubility ([2]; THF:H2O (9:1), THF:H2O (9:1), 10 vol): > 100 mg/mL
- Solubility ([2]; acetone, 10 vol): > 100 mg/mL
- pH of the saturated solution, thermodynamic solubility in DI water ([3]; DI water, 24 hours): 7.0
- solubility thermodynamic at 24 h ([3]; thermodynamic from solid, DI water, 24 hours, 25° C.): 0.4 mg/mL (≈ 0.522 mM)
Compound: CC[C@H]1OC(=O)[C@H](C)C(=O)[C@H](C)[C@@H](O[C@@H]2O[C@H](C)C[C@H](N(C)C)[C@H]2O)[C@](C)(OC/C=C/c2cnc3ccccc3c2)C[C@@H](C)C(=O)[C@H](C)[C@H]2NC(=O)O[C@@]21C [Cethromycin, (3aS,4R,7R,9R,10R,11R,13R,15R,15aR)-10-(((2S,3R,4S,6R)-4-(dimethylamino)-3-hydroxy-6-methyltetrahydro-2H-pyran-2-yl)oxy)-4-ethyl-3a,7,9,11,13,15-hexamethyl-11-(((E)-3-(quinolin-3-yl)allyl)oxy)octahydro-2H-[1]oxa-cyclotetradecino[4,3-d]oxazole-2,6,8,14(1H,7H,9H)-tetraone]

Compound: CCC1OC(=O)C(C)C(=O)C(C)C(OC2OC(C)CC(N(C)C)C2O)C(C)(OCC=Cc2cnc3ccccc3c2)CC(C)C(=O)C(C)C2NC(=O)OC12C (stereo not drawn) [Free form]
- Avg Sol'y ([1]; 2 hr (Table 32)): 25 mg/mL
- Sol'y ([1]; 2 hr (Table 32)): 24 mg/mL
- pH at 2 hrs ([1]; 2 hr (Table 32)): 7.6 and 7.5
- Avg Sol'y [4]: 2.0 mg/mL
- Sol'y [4]: 2.0 mg/mL and 1.9 mg/mL
- pH at 24 hrs [4]: 6.8
- Avg Sol'y ([3]; DI Water, 24 hr (Table 34)): 0.41 mg/mL
- Sol'y ([3]; DI Water, 24 hr (Table 34)): 0.47 mg/mL and 0.35 mg/mL
- pH at 24 hrs ([3]; DI Water, 24 hr (Table 34)): 8.1
- PXRD of Residues ([5]; PBS pH 7.4, 24 hr): freebase pattern 2
- PXRD of Residues ([5]; SGF media, 2 hr): amorphous

Compound: CCC1OC(=O)C(C)C(=O)C(C)C(OC2OC(C)CC(N(C)C)C2O)C(C)(OCC=Cc2cnc3ccccc3c2)CC(C)C(=O)C(C)C2NC(=O)OC12C.Cl (stereo not drawn) [amorphous cethromycin chloride]
- Storage at 40° C./75% RH for 9 days (PXRD) ([6]; 9 days, Batch D): did not crystallise; also recorded: amorphous
- Solubility in selected solvents ([7]; 18 solvents): soluble in 10 of the 18 solvents
- Solubility ([7]; Acetone, 1 vol): ✓ (dissolved)
- Solubility ([7]; EtOAc, 1 vol): x (not dissolved/too dry to slurry)
- Solubility ([7]; EtOAc, 2 vol): x (not dissolved/too dry to slurry)
- Solubility ([7]; EtOAc, 3 vol): x (not dissolved/too dry to slurry)
- Solubility ([7]; EtOAc, 4 vol): x (not dissolved/too dry to slurry)
- Solubility ([7]; EtOAc, 5 vol): ✓o (slurry)
- Solubility ([7]; EtOH/H2O (10%), 1 vol): ✓ (dissolved)
- Solubility ([7]; Ethanol, 1 vol): ✓ (dissolved)
- Solubility ([7]; Hept, 1 vol): x (not dissolved/too dry to slurry)
- Solubility ([7]; Hept, 2 vol): x (not dissolved/too dry to slurry)
- Solubility ([7]; Hept, 3 vol): x (not dissolved/too dry to slurry)
- Solubility ([7]; Hept, 4 vol): x (not dissolved/too dry to slurry)
- Solubility ([7]; Hept, 5 vol): x (not dissolved/too dry to slurry)
- Solubility ([7]; Hept, 10 vol): ✓o (slurry)
- Solubility ([7]; MEK, 1 vol): x (not dissolved/too dry to slurry)
- Solubility ([7]; MEK, 2 vol): x (not dissolved/too dry to slurry)
- Solubility ([7]; MEK, 3 vol): x (not dissolved/too dry to slurry)
- Solubility ([7]; MEK, 4 vol): x (not dissolved/too dry to slurry)
- Solubility ([7]; MEK, 5 vol): ✓o (slurry)
- Solubility ([7]; MIBK, 1 vol): x (not dissolved/too dry to slurry)
- Solubility ([7]; MIBK, 2 vol): x (not dissolved/too dry to slurry)
- Solubility ([7]; MIBK, 3 vol): x (not dissolved/too dry to slurry)
- Solubility ([7]; MIBK, 4 vol): x (not dissolved/too dry to slurry)
- Solubility ([7]; MIBK, 5 vol): ✓o (slurry)
- Solubility ([7]; MTBE, 1 vol): x (not dissolved/too dry to slurry)
- Solubility ([7]; MTBE, 2 vol): x (not dissolved/too dry to slurry)
- Solubility ([7]; MTBE, 3 vol): x (not dissolved/too dry to slurry)
- Solubility ([7]; MTBE, 4 vol): x (not dissolved/too dry to slurry)
- Solubility ([7]; MTBE, 10 vol): ✓o (slurry)
- Solubility ([7]; MeCN, 1 vol): ✓ (dissolved)
- Solubility ([7]; MeOH, 1 vol): ✓ (dissolved)
- Solubility ([7]; THF, 1 vol): x (not dissolved/too dry to slurry)
- Solubility ([7]; THF, 2 vol): x (not dissolved/too dry to slurry)
- Solubility ([7]; THF, 3 vol): x (not dissolved/too dry to slurry)
- Solubility ([7]; THF, 4 vol): x (not dissolved/too dry to slurry)
- Solubility ([7]; THF, 5 vol): ✓ (dissolved)
- Solubility ([7]; THF/H2O (10%), 1 vol): ✓ (dissolved)
- Solubility ([7]; Toluene, 1 vol): x (not dissolved/too dry to slurry)
- Solubility ([7]; Toluene, 2 vol): x (not dissolved/too dry to slurry)
- Solubility ([7]; Toluene, 3 vol): x (not dissolved/too dry to slurry)
- Solubility ([7]; Toluene, 4 vol): x (not dissolved/too dry to slurry)
- Solubility ([7]; Toluene, 5 vol): x (not dissolved/too dry to slurry)
- Solubility ([7]; Toluene, 10 vol): ✓o (slurry)
- Solubility ([7]; cHex, 1 vol): x (not dissolved/too dry to slurry)
- Solubility ([7]; cHex, 2 vol): x (not dissolved/too dry to slurry)
- Solubility ([7]; cHex, 3 vol): x (not dissolved/too dry to slurry)
- Solubility ([7]; cHex, 4 vol): x (not dissolved/too dry to slurry)
- Solubility ([7]; cHex, 5 vol): x (not dissolved/too dry to slurry)
- Solubility ([7]; cHex, 10 vol): ✓o (slurry)
- Solubility ([7]; iBuOH, 1 vol): ✓ (dissolved)
- Solubility ([7]; iPrOAc, 1 vol): x (not dissolved/too dry to slurry)
- Solubility ([7]; iPrOAc, 2 vol): x (not dissolved/too dry to slurry)
- Solubility ([7]; iPrOAc, 3 vol): x (not dissolved/too dry to slurry)
- Solubility ([7]; iPrOAc, 4 vol): x (not dissolved/too dry to slurry)
- Solubility ([7]; iPrOAc, 5 vol): x (not dissolved/too dry to slurry)
- Solubility ([7]; iPrOAc, 10 vol): ✓o (slurry)
- Solubility ([7]; iPrOH, 1 vol): ✓ (dissolved)
- Solubility ([7]; iPrOH/H2O (10%), 1 vol): ✓ (dissolved)

- HPLC Purity after storage at 40° C./75% RH for 7 days ([6]; 7 days): 96.6%
- PXRD after storage at 40° C./75% RH for 7 days ([6]; 7 days, made from acetate pattern 1 by heating to 150° C.): freebase pattern 1
- Stability of the form at RT [8]: stable at RT
Compound: CC[C@H]1OC(=O)[C@H](C)C(=O)[C@H](C)[C@@H](O[C@@H]2O[C@H](C)C[C@H](N(C)C)[C@H]2O)[C@](C)(OCC=Cc2cnc3ccccc3c2)C[C@@H](C)C(=O)[C@H](C)[C@H]2NC(=O)O[C@@]21C [freebase pattern 1]
